Here are results for 19 compounds from the supplement of paper PMC11368000.

In the first assay the test system is 1083 (donor line of iPSC-derived cardiomyocytes). In words: POD (EC05) for increase in Ca2+ transient decay-to-rise ratio (QT prolongation) vs vehicle; higher = less potent (higher point of departure). As to conditions: exposure time: 90 min. In outline: (§1)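 For each of 16 donors, iPSC-derived human cardiomyocytes were cultured 14 days in gelatin-coated 384-well plates and given a fluorescent Ca2+ dye for 2 h. Exposure lasted 90 min at 37 °C at 0.1, 1, 10 and 100 µM final, with 0.5% DMSO, and a FLIPR Tetra captured Ca2+ flux at 8 frames/s over 100 s both before and afterwards. Points of departure per donor were estimated by hierarchical Bayesian Hill fits to vehicle-normalised beat frequency, decay-to-rise ratio or peak frequency, using thresholds of 5% change, or 95% loss for peak frequency.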
Take `OCCC(F)(F)C(F)(F)C(F)(F)C(F)(F)C(F)(F)C(F)(F)F` [6:2 Fluorotelomer alcohol]: the POD vs vehicle was above 100 µM.
On the same count and under the same terms, the same measure for `O=S(=O)(O)CCC(F)(F)C(F)(F)C(F)(F)C(F)(F)C(F)(F)C(F)(F)F` [6:2 Fluorotelomer sulfonic acid]: above 100 µM; for `OCCC(F)(F)C(F)(F)C(F)(F)C(F)(F)C(F)(F)C(F)(F)C(F)(F)C(F)(F)F` [8:2 Fluorotelomer alcohol]: above 100 µM; for `O=S(=O)(O)CCC(F)(F)C(F)(F)C(F)(F)C(F)(F)C(F)(F)C(F)(F)C(F)(F)C(F)(F)F` [8:2 Fluorotelomer sulfonic acid]: above 100 µM.
For the compound `O=C(O)C(F)(F)C(F)(F)C(F)(F)C(F)(F)C(F)(F)C(F)(F)C(F)(F)C(F)(F)Cl` [9-Chloro-perfluorononanoic_acid], the POD vs vehicle is above 100 µM.
Still for that read-out and setting: the same measure for `O=P(O)(O)CCC(F)(F)C(F)(F)C(F)(F)C(F)(F)C(F)(F)C(F)(F)C(F)(F)C(F)(F)F` [((Perfluorooctyl)ethyl)phosphonic_acid]: above 100 µM.
For `O=C([O-])C(F)(F)C(F)(F)C(F)(F)C(F)(F)C(F)(F)C(F)(F)C(F)(F)F.[NH4+]` [Ammonium_perfluorooctanoate], the POD vs vehicle is above 100 µM.
For `OCC(F)(F)C(F)(F)C(F)(F)C(F)(F)C(F)(F)C(F)F` [Dodecafluoroheptanol], the POD vs vehicle is above 100 µM.
As to `OCC(F)(F)OC(F)(F)C(F)(F)OC(F)(F)C(F)(F)OC(F)(F)F` [Fluorinated_triethylene_glycol_monomethyl_ether], the POD vs vehicle was above 100 µM.
Regarding `OCC(F)(F)C(F)(F)C(F)(F)F` [Heptafluorobutanol], the POD vs vehicle was above 100 µM.
For the compound `OCC(F)(F)C(F)(F)C(F)(F)CO` [Hexafluoroamylene_glycol], the POD vs vehicle is above 100 µM.
With `COC(=O)C(F)(F)C(F)(F)OC(F)(C(F)(F)F)C(F)(F)OC(F)=C(F)F` (configuration not stated) [Methyl_perfluoro(3-(1-ethenyloxypropan-2-yloxy)propanoate)], the POD vs vehicle is above 100 µM.
The same measure, in the same setting: the same measure for `NC(=O)C(F)(F)C(F)(F)C(F)(F)C(F)(F)F` [Nonafluoropentanamide]: above 100 µM; for `NC(=O)C(F)(F)C(F)(F)C(F)(F)C(F)(F)C(N)=O` [Octafluoroadipamide]: above 100 µM.
On the same count and under the same terms, the same measure for `O=C(O)C(F)(F)C(F)(F)C(F)(F)C(F)(F)C(=O)O` [Octafluoroadipic_acid]: above 100 µM.
On the same count and under the same terms, the same measure for `O=C(O)C(F)(F)C(F)(F)C(F)(F)OC(F)(F)F` [Perfluoro(4-methoxybutanoic)_acid]: above 100 µM.
Turning to `O=C(O)C(F)(F)OC(F)(F)C(F)(F)OC(F)(F)C(F)(F)OC(F)(F)C(F)(F)C(F)(F)C(F)(F)F` [Perfluoro-3,6,9-trioxatridecanoic_acid], the POD vs vehicle was above 100 µM.
The same measure, in the same setting: the same measure for `O=C(O)C(F)(F)OC(F)(F)C(F)(F)OC(F)(F)F` [Perfluoro-3,6-dioxaheptanoic_acid]: above 100 µM; for `O=C(O)C(F)(F)OC(F)(F)C(F)(F)OC(F)(F)C(=O)O` [Perfluoro-3,6-dioxaoctane-1,8-dioic_acid]: above 100 µM.

The next assay has as its system 30171 (donor line of iPSC-derived cardiomyocytes). Described as above. Particulars: exposure time: 90 min. The procedure, abridged:
as §1
Take `OCCC(F)(F)C(F)(F)C(F)(F)C(F)(F)C(F)(F)C(F)(F)F` [6:2 Fluorotelomer alcohol]: the POD vs vehicle was above 100 µM.
On the same count and under the same terms, the same measure for `O=S(=O)(O)CCC(F)(F)C(F)(F)C(F)(F)C(F)(F)C(F)(F)C(F)(F)F` [6:2 Fluorotelomer sulfonic acid]: above 100 µM; for `OCCC(F)(F)C(F)(F)C(F)(F)C(F)(F)C(F)(F)C(F)(F)C(F)(F)C(F)(F)F` [8:2 Fluorotelomer alcohol]: above 100 µM; for `O=S(=O)(O)CCC(F)(F)C(F)(F)C(F)(F)C(F)(F)C(F)(F)C(F)(F)C(F)(F)C(F)(F)F` [8:2 Fluorotelomer sulfonic acid]: 20.1 µM.
`O=C(O)C(F)(F)C(F)(F)C(F)(F)C(F)(F)C(F)(F)C(F)(F)C(F)(F)C(F)(F)Cl` [9-Chloro-perfluorononanoic_acid]: the POD vs vehicle was above 100 µM.
On the same count and under the same terms, the same measure for `O=P(O)(O)CCC(F)(F)C(F)(F)C(F)(F)C(F)(F)C(F)(F)C(F)(F)C(F)(F)C(F)(F)F` [((Perfluorooctyl)ethyl)phosphonic_acid]: above 100 µM; for `O=C([O-])C(F)(F)C(F)(F)C(F)(F)C(F)(F)C(F)(F)C(F)(F)C(F)(F)F.[NH4+]` [Ammonium_perfluorooctanoate]: above 100 µM; for `OCC(F)(F)C(F)(F)C(F)(F)C(F)(F)C(F)(F)C(F)F` [Dodecafluoroheptanol]: above 100 µM.
On the same count and under the same terms, the same measure for `OCC(F)(F)OC(F)(F)C(F)(F)OC(F)(F)C(F)(F)OC(F)(F)F` [Fluorinated_triethylene_glycol_monomethyl_ether]: above 100 µM; for `OCC(F)(F)C(F)(F)C(F)(F)F` [Heptafluorobutanol]: above 100 µM; for `OCC(F)(F)C(F)(F)C(F)(F)CO` [Hexafluoroamylene_glycol]: above 100 µM.
Same read-out and setting: the same measure for `COC(=O)C(F)(F)C(F)(F)OC(F)(C(F)(F)F)C(F)(F)OC(F)=C(F)F` (configuration not stated) [Methyl_perfluoro(3-(1-ethenyloxypropan-2-yloxy)propanoate)]: above 100 µM; for `NC(=O)C(F)(F)C(F)(F)C(F)(F)C(F)(F)F` [Nonafluoropentanamide]: above 100 µM; for `NC(=O)C(F)(F)C(F)(F)C(F)(F)C(F)(F)C(N)=O` [Octafluoroadipamide]: above 100 µM.
Take `O=C(O)C(F)(F)C(F)(F)C(F)(F)C(F)(F)C(=O)O` [Octafluoroadipic_acid]: the POD vs vehicle is above 100 µM.
With `O=C(O)C(F)(F)C(F)(F)C(F)(F)OC(F)(F)F` [Perfluoro(4-methoxybutanoic)_acid], the POD vs vehicle was above 100 µM.
For the compound `O=C(O)C(F)(F)OC(F)(F)C(F)(F)OC(F)(F)C(F)(F)OC(F)(F)C(F)(F)C(F)(F)C(F)(F)F` [Perfluoro-3,6,9-trioxatridecanoic_acid], the POD vs vehicle is above 100 µM.
Still for that read-out and setting: the same measure for `O=C(O)C(F)(F)OC(F)(F)C(F)(F)OC(F)(F)F` [Perfluoro-3,6-dioxaheptanoic_acid]: above 100 µM.
Same read-out and setting: the same measure for `O=C(O)C(F)(F)OC(F)(F)C(F)(F)OC(F)(F)C(=O)O` [Perfluoro-3,6-dioxaoctane-1,8-dioic_acid]: above 100 µM.

Another assay relates to 1392 (donor line of iPSC-derived cardiomyocytes). The description is as above. As to conditions: exposure time: 90 min. In outline:
as §1
Consider `OCCC(F)(F)C(F)(F)C(F)(F)C(F)(F)C(F)(F)C(F)(F)F` [6:2 Fluorotelomer alcohol], for which the POD vs vehicle was above 100 µM.
On the same count and under the same terms, the same measure for `O=S(=O)(O)CCC(F)(F)C(F)(F)C(F)(F)C(F)(F)C(F)(F)C(F)(F)F` [6:2 Fluorotelomer sulfonic acid]: above 100 µM; for `OCCC(F)(F)C(F)(F)C(F)(F)C(F)(F)C(F)(F)C(F)(F)C(F)(F)C(F)(F)F` [8:2 Fluorotelomer alcohol]: above 100 µM.
As for `O=S(=O)(O)CCC(F)(F)C(F)(F)C(F)(F)C(F)(F)C(F)(F)C(F)(F)C(F)(F)C(F)(F)F` [8:2 Fluorotelomer sulfonic acid], the POD vs vehicle was above 100 µM.
As for `O=C(O)C(F)(F)C(F)(F)C(F)(F)C(F)(F)C(F)(F)C(F)(F)C(F)(F)C(F)(F)Cl` [9-Chloro-perfluorononanoic_acid], the POD vs vehicle was above 100 µM.
Still for that read-out and setting: the same measure for `O=P(O)(O)CCC(F)(F)C(F)(F)C(F)(F)C(F)(F)C(F)(F)C(F)(F)C(F)(F)C(F)(F)F` [((Perfluorooctyl)ethyl)phosphonic_acid]: above 100 µM; for `O=C([O-])C(F)(F)C(F)(F)C(F)(F)C(F)(F)C(F)(F)C(F)(F)C(F)(F)F.[NH4+]` [Ammonium_perfluorooctanoate]: above 100 µM; for `OCC(F)(F)C(F)(F)C(F)(F)C(F)(F)C(F)(F)C(F)F` [Dodecafluoroheptanol]: above 100 µM.
On the same count and under the same terms, the same measure for `OCC(F)(F)OC(F)(F)C(F)(F)OC(F)(F)C(F)(F)OC(F)(F)F` [Fluorinated_triethylene_glycol_monomethyl_ether]: above 100 µM.
